The source of these data is ChEMBL document CHEMBL1201862, “PubChem BioAssay data set” (2004).

Broadly, the GI50 is the concentration at which growth is held to half of that of the control.

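Briefly, cells in 96-well plates were exposed to five compound concentrations for 48 h, and endpoints were estimated by linear interpolation. Here, GI50 denotes the concentration required for 50% inhibition of growth.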 Activity calls are given as the source filed them. Cut-off read from the data, not from the text of the source: active = GI50 up to about 1.1 µM and inactive = higher.

What all share (test): DTP human tumour cell line panel, 48 h
Assay [1] deals with RXF 631.
The test system of assay [2] is XF498.
Assay [3] concerns KM-20L2.
Assay [4] relates to DMS-273.
Assay [5] has as its system HOP-18.
Assay [6] has as its system M19-MEL.

On to `COc1cc2ccc3c4c(OC)cc(OC)c(OC)c4c([O-])[n+](C)c3c2cc1OC`, for which the GI50 in assay [1] is > 100 µM (inactive); in assay [2], 2.34 µM (inactive); in assay [3], 9.38 µM (inactive); in assay [4], 0.428 µM (active); in assay [5], > 100 µM (inactive); in assay [6], 6.46 µM (inactive).
